Data reported in patent publication US9833497B2, “Human originated EGF domain proteins and use of the same” (CHENGDU SOURCEBIO LIMITED-LIABILITY COMPANY, priority 2013, dated 2017).

Tests used:
Type in all cases: cell-based
Citrobacter diversus = assay: MIC against Gram-negative bacteria: Citrobacter diversus; settings: for MIC: C. diversus
Procedure, shortened: (§1)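 Inocula prepared by growing LB cultures at 37° C to 0.5 McFarland, centrifuging at 4000×g, and resuspending in fresh medium. Final density 5×10^5 CFU/mL per well with two-fold dilutions of purified EGF domain protein; shaking incubation at 37° C.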

E. coli BL21 = assay: MIC against Gram-negative bacteria: E. coli BL21
Procedure, shortened: as §1

Pseudomonas aeruginosa = assay: MIC against Gram-negative bacteria: Pseudomonas aeruginosa; settings: for MIC: P. aeruginosa
Procedure, shortened: as §1

Proteus vulgaris = assay: MIC against Gram-negative bacteria: Proteus vulgaris; settings: for MIC: P. vulgaris
Procedure, shortened: as §1

Proteus mirabilis = assay: MIC against Gram-negative bacteria: Proteus mirabilis; settings: for MIC: P. mirabilis
Procedure, shortened: as §1

Moraxella catarrhalis = assay: MIC against Gram-negative bacteria: Moraxella catarrhalis; settings: for MIC: M. catarrhalis
Procedure, shortened: as §1

E. coli DH5α = assay: Antibacterial activity: MIC and growth curve against E. coli DH5α in 96-well plate; settings: minimal inhibitory concentration against E. coli DH5α; 96-well plate, 5×10^5 CFU/mL, 37° C., judged after 8 h
Procedure, shortened: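 Log-phase DH5α (OD600 about 0.5, 37° C, 185 rpm in LB) was pelleted, resuspended in fresh LB and seeded at 5×10^5 CFU/mL with recombinant protein at 50, 25 and 12.5 μg/mL (two-fold series), in triplicate. Plates were shaken at 175 rpm, 37° C, and OD600 was read every 30 min. MIC was the lowest concentration with no growth.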

Klebsiella pneumonia = assay: MIC against Gram-negative bacteria: Klebsiella pneumonia; settings: for MIC: K. pneumonia
Procedure, shortened: as §1

Aeromonas hydrophila = assay: MIC against Gram-negative bacteria: Aeromonas hydrophila; settings: for MIC: A. hydrophila
Procedure, shortened: as §1

Enterobacter cloacae = assay: MIC against Gram-negative bacteria: Enterobacter cloacae; settings: for MIC: E. cloacae
Procedure, shortened: as §1

Serratia marcescens = assay: MIC against Gram-negative bacteria: Serratia marcescens; settings: for MIC: S. marcescens
Procedure, shortened: as §1

[1] = Citrobacter diversus, 5×10^5 CFU/mL, 10 h cultivation at 37° C.
[2] = E. coli BL21, 5×10^5 CFU/mL, 10 h cultivation at 37° C.
[3] = Pseudomonas aeruginosa, 5×10^5 CFU/mL, 10 h cultivation at 37° C.
[4] = Proteus vulgaris, 5×10^5 CFU/mL, 10 h cultivation at 37° C.
[5] = Proteus mirabilis, 5×10^5 CFU/mL, 10 h cultivation at 37° C.
[6] = Moraxella catarrhalis, 5×10^5 CFU/mL, 10 h cultivation at 37° C.
[7] = Klebsiella pneumonia, 5×10^5 CFU/mL, 10 h cultivation at 37° C.
[8] = Aeromonas hydrophila, 5×10^5 CFU/mL, 10 h cultivation at 37° C.
[9] = Enterobacter cloacae, 5×10^5 CFU/mL, 10 h cultivation at 37° C.
[10] = Serratia marcescens, 5×10^5 CFU/mL, 10 h cultivation at 37° C.
[11] = 10 h cultivation at 37° C., 5×10^5 CFU/mL, two-fold serial dilution
[12] = 96-well plate, 5×10^5 CFU/mL, 37° C., 10 h
[13] = 10 h cultivation at 37° C., 5×10^5 CFU/mL

PRT1478 (GGSPCISQPCLHNGSCQDSIWGYTCTCSPGYEGSNCE; listed as Homo sapiens)
12.5 µg/mL: MIC against C. diversus (Citrobacter diversus; [1]) | MIC against E. coli BL21 (E. coli BL21; [2]) | MIC against E. cloacae (Enterobacter cloacae; [9]) | MIC against S. marcescens (Serratia marcescens; [10])
25 µg/mL: MIC against P. vulgaris (Proteus vulgaris; [4]) | MIC against M. catarrhalis (Moraxella catarrhalis; [6]) | MIC against K. pneumonia (Klebsiella pneumonia; [7])
50 µg/mL: MIC against P. aeruginosa (Pseudomonas aeruginosa; [3]) | MIC against P. mirabilis (Proteus mirabilis; [5]) | MIC (E. coli DH5α) | MIC against A. hydrophila (Aeromonas hydrophila; [8])

PRT1071 (ELDQCWEHCRNGGTCAASPSGMPTCRCPTGFTGPKCT; listed as Homo sapiens)
50 µg/mL: MIC P. vulgaris (Proteus vulgaris; [11]) | MIC M. catarrhalis (Moraxella catarrhalis; [11]) | MIC (E. coli DH5α) | MIC E. cloacae (Enterobacter cloacae; [11])
12.5 µg/mL: MIC C. diversus (Citrobacter diversus; [11]) | MIC P. aeruginosa (Pseudomonas aeruginosa; [11]) | MIC P. mirabilis (Proteus mirabilis; [11]) | MIC S. marcescens (Serratia marcescens; [11])
25 µg/mL: MIC E. coli BL21 (E. coli BL21; [11]) | MIC K. pneumonia (Klebsiella pneumonia; [11]) | MIC A. hydrophila (Aeromonas hydrophila; [11])

PRT1396 (LGADCAKAACPVLCSGNGQYSKGTCQCYSGWKGAECD; listed as Homo sapiens)
25 µg/mL: MIC against P. vulgaris (Proteus vulgaris; [4]) | MIC against M. catarrhalis (Moraxella catarrhalis; [6]) | MIC against A. hydrophila (Aeromonas hydrophila; [8]) | MIC against E. cloacae (Enterobacter cloacae; [9])
12.5 µg/mL: MIC against C. diversus (Citrobacter diversus; [1]) | MIC against E. coli BL21 (E. coli BL21; [2]) | MIC against P. aeruginosa (Pseudomonas aeruginosa; [3]) | MIC against P. mirabilis (Proteus mirabilis; [5]) | MIC (E. coli DH5α) | MIC against K. pneumonia (Klebsiella pneumonia; [7]) | MIC against S. marcescens (Serratia marcescens; [10])

PRT977 (EVDPCLAQPCQHGGTCRGYMGGYMCECLPGYNGDNCE; listed as Homo sapiens)
25 µg/mL: MIC (Moraxella catarrhalis; 10 h cultivation at 37° C.) | MIC (Aeromonas hydrophila; 10 h cultivation at 37° C.) | MIC (Serratia marcescens; 10 h cultivation at 37° C.)
50 µg/mL: MIC (Citrobacter diversus; 10 h cultivation at 37° C.) | MIC (E. coli BL21; E. coli BL21, 10 h cultivation at 37° C.) | MIC (Proteus vulgaris; 10 h cultivation at 37° C.) | MIC (Klebsiella pneumonia; 10 h cultivation at 37° C.)
12.5 µg/mL: MIC (Pseudomonas aeruginosa; 10 h cultivation at 37° C.) | MIC (Proteus mirabilis; 10 h cultivation at 37° C.) | MIC (E. coli DH5α) | MIC (Enterobacter cloacae; 10 h cultivation at 37° C.)

PRT563 (CVCNYLGTVQEHCNGSDCQCDKATGQCLCLPNVIGQNCDRCAPNTWQLASGTGCDP; listed as Homo sapiens)
25 µg/mL: MIC against C. diversus (Citrobacter diversus; [12]) | MIC against P. aeruginosa (Pseudomonas aeruginosa; [12]) | MIC against P. mirabilis (Proteus mirabilis; [12]) | MIC (E. coli DH5α) | MIC against E. cloacae (Enterobacter cloacae; [12]) | MIC against S. marcescens (Serratia marcescens; [12])
12.5 µg/mL: MIC against E. coli BL21 (E. coli BL21; [12]) | MIC against P. vulgaris (Proteus vulgaris; [12]) | MIC against A. hydrophila (Aeromonas hydrophila; [12])
50 µg/mL: MIC against M. catarrhalis (Moraxella catarrhalis; [12]) | MIC against K. pneumonia (Klebsiella pneumonia; [12])

PRT1309 (EVDPCAHGHGGCSPHANCTKVAPGQRTCTCQDGYMGDGELCQ; listed as Homo sapiens)
50 µg/mL: MIC against E. coli BL21 (E. coli BL21; E. coli BL21, 96-well plate, 5×10^5 CFU/mL, 37° C., 10 h) | MIC against P. vulgaris (Proteus vulgaris; Proteus vulgaris, 96-well plate, 5×10^5 CFU/mL, 37° C., 10 h) | MIC against K. pneumonia (Klebsiella pneumonia; Klebsiella pneumonia, 96-well plate, 5×10^5 CFU/mL, 37° C., 10 h) | MIC against A. hydrophila (Aeromonas hydrophila; Aeromonas hydrophila, 96-well plate, 5×10^5 CFU/mL, 37° C., 10 h)
25 µg/mL: MIC against C. diversus (Citrobacter diversus; Citrobacter diversus, 96-well plate, 5×10^5 CFU/mL, 37° C., 10 h) | MIC against P. mirabilis (Proteus mirabilis; Proteus mirabilis, 96-well plate, 5×10^5 CFU/mL, 37° C., 10 h) | MIC against S. marcescens (Serratia marcescens; Serratia marcescens, 96-well plate, 5×10^5 CFU/mL, 37° C., 10 h)
12.5 µg/mL: MIC against P. aeruginosa (Pseudomonas aeruginosa; Pseudomonas aeruginosa, 96-well plate, 5×10^5 CFU/mL, 37° C., 10 h) | MIC against M. catarrhalis (Moraxella catarrhalis; Moraxella catarrhalis, 96-well plate, 5×10^5 CFU/mL, 37° C., 10 h) | MIC (E. coli DH5α) | MIC against E. cloacae (Enterobacter cloacae; Enterobacter cloacae, 96-well plate, 5×10^5 CFU/mL, 37° C., 10 h)

PRT415 (DINECLSISAPCPIGHTCINTEGSYTCQKNVPNCGRGYHLNEEGTRCV; listed as Homo sapiens)
25 µg/mL: MIC (Citrobacter diversus; [13]) | MIC (Pseudomonas aeruginosa; [13]) | MIC (Proteus mirabilis; [13]) | MIC (E. coli DH5α) | MIC (Enterobacter cloacae; [13]) | MIC (Serratia marcescens; [13])
12.5 µg/mL: MIC (E. coli BL21; E. coli BL21, 10 h cultivation at 37° C., 5×10^5 CFU/mL) | MIC (Proteus vulgaris; [13]) | MIC (Aeromonas hydrophila; [13])
50 µg/mL: MIC (Moraxella catarrhalis; [13]) | MIC (Klebsiella pneumonia; [13])

PRT1443 (NHMPCPENLNGYCIHGKCEFIYSTQKASCRCESGYTGQHCE; listed as Homo sapiens)
50 µg/mL: MIC against E. coli BL21 (E. coli BL21; [2]) | MIC against A. hydrophila (Aeromonas hydrophila; [8]) | MIC against S. marcescens (Serratia marcescens; [10])
12.5 µg/mL: MIC against P. mirabilis (Proteus mirabilis; [5]) | MIC against K. pneumonia (Klebsiella pneumonia; [7])
25 µg/mL: MIC against C. diversus (Citrobacter diversus; [1]) | MIC against P. aeruginosa (Pseudomonas aeruginosa; [3]) | MIC against P. vulgaris (Proteus vulgaris; [4]) | MIC against M. catarrhalis (Moraxella catarrhalis; [6]) | MIC (E. coli DH5α) | MIC against E. cloacae (Enterobacter cloacae; [9])

PRT1477 (DIDECSENMCAQLCVNYPGGYTCYCDGKKGFKLAQDQKSCE; listed as Homo sapiens)
12.5 µg/mL: MIC against E. coli BL21 (E. coli BL21; [2]) | MIC against M. catarrhalis (Moraxella catarrhalis; [6]) | MIC against K. pneumonia (Klebsiella pneumonia; [7]) | MIC against S. marcescens (Serratia marcescens; [10])
25 µg/mL: MIC against C. diversus (Citrobacter diversus; [1]) | MIC against P. mirabilis (Proteus mirabilis; [5]) | MIC against E. cloacae (Enterobacter cloacae; [9])
50 µg/mL: MIC against P. aeruginosa (Pseudomonas aeruginosa; [3]) | MIC against P. vulgaris (Proteus vulgaris; [4]) | MIC (E. coli DH5α) | MIC against A. hydrophila (Aeromonas hydrophila; [8])

PRT1416 (IEICAADCGGHGVCVGGTCRCEDGWMGAACDQ; listed as Homo sapiens)
12.5 µg/mL: MIC against C. diversus (Citrobacter diversus; [1]) | MIC against E. coli BL21 (E. coli BL21; [2]) | MIC against P. mirabilis (Proteus mirabilis; [5]) | MIC against S. marcescens (Serratia marcescens; [10])
25 µg/mL: MIC against P. aeruginosa (Pseudomonas aeruginosa; [3]) | MIC against P. vulgaris (Proteus vulgaris; [4]) | MIC against M. catarrhalis (Moraxella catarrhalis; [6]) | MIC (E. coli DH5α) | MIC against A. hydrophila (Aeromonas hydrophila; [8]) | MIC against E. cloacae (Enterobacter cloacae; [9])
50 µg/mL: MIC against K. pneumonia (Klebsiella pneumonia; [7])

PRT590 (CDCNILGSRRDMPCDEESGRCLCLPNVVGPKCDQCAPYHWKLASGQGCEP; listed as Homo sapiens)
25 µg/mL: MIC against E. coli BL21 (E. coli BL21; [12]) | MIC against P. vulgaris (Proteus vulgaris; [12]) | MIC against M. catarrhalis (Moraxella catarrhalis; [12]) | MIC against K. pneumonia (Klebsiella pneumonia; [12]) | MIC against A. hydrophila (Aeromonas hydrophila; [12])
50 µg/mL: MIC against P. mirabilis (Proteus mirabilis; [12]) | MIC (E. coli DH5α) | MIC against E. cloacae (Enterobacter cloacae; [12])
12.5 µg/mL: MIC against C. diversus (Citrobacter diversus; [12]) | MIC against P. aeruginosa (Pseudomonas aeruginosa; [12]) | MIC against S. marcescens (Serratia marcescens; [12])

PRT1476 (DVDECSLKPSICGTAVCKNIPGDFECECPEGYRYNLKSKSCE; listed as Homo sapiens)
25 µg/mL: MIC against E. coli BL21 (E. coli BL21; [2]) | MIC against M. catarrhalis (Moraxella catarrhalis; [6]) | MIC against S. marcescens (Serratia marcescens; [10])
50 µg/mL: MIC against P. mirabilis (Proteus mirabilis; [5]) | MIC against K. pneumonia (Klebsiella pneumonia; [7]) | MIC against A. hydrophila (Aeromonas hydrophila; [8])
12.5 µg/mL: MIC against C. diversus (Citrobacter diversus; [1]) | MIC against P. aeruginosa (Pseudomonas aeruginosa; [3]) | MIC against P. vulgaris (Proteus vulgaris; [4]) | MIC (E. coli DH5α) | MIC against E. cloacae (Enterobacter cloacae; [9])

PRT670 (DVDECASRASCPTGLCLNTEGSFACSACENGYWVNEDGTACE; listed as Homo sapiens)
25 µg/mL: MIC C. diversus (Citrobacter diversus; [12]) | MIC P. aeruginosa (Pseudomonas aeruginosa; [12]) | MIC P. mirabilis (Proteus mirabilis; [12]) | MIC (E. coli DH5α) | MIC S. marcescens (Serratia marcescens; [12])
12.5 µg/mL: MIC E. coli BL21 (E. coli BL21; [12]) | MIC P. vulgaris (Proteus vulgaris; [12]) | MIC M. catarrhalis (Moraxella catarrhalis; [12]) | MIC K. pneumonia (Klebsiella pneumonia; [12]) | MIC A. hydrophila (Aeromonas hydrophila; [12]) | MIC E. cloacae (Enterobacter cloacae; [12])
